In PubChem BioAssay (NCI):
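Dose response: 5 concentrations. Exposure: 48 h. Format: 96-well plates. Endpoint: linear interpolation; highest concentration if not reached. At the GI50, growth is halved. Definition used: TGI = concentration required for complete inhibition of growth.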

How the values were obtained:
Assay in all cases: growth of human tumour cells (NCI), 48 h
MCF7 breast = tested on: MCF7 breast
SN12C renal = tested on: SN12C renal
KM12 colon = tested on: KM12 colon
NCI-H460 lung = tested on: NCI-H460 lung
OVCAR-5 ovarian = tested on: OVCAR-5 ovarian
OVCAR-8 ovarian = tested on: OVCAR-8 ovarian
SK-MEL-5 melanoma = tested on: SK-MEL-5 melanoma
SK-MEL-2 melanoma = tested on: SK-MEL-2 melanoma
MDA-MB-468 breast = tested on: MDA-MB-468 breast
OVCAR-4 ovarian = tested on: OVCAR-4 ovarian
786-0 renal = tested on: 786-0 renal
UACC-257 melanoma = tested on: UACC-257 melanoma
MDA-MB-435 = tested on: MDA-MB-435
SW-620 colon = tested on: SW-620 colon
BT-549 breast = tested on: BT-549 breast
HCT-15 colon = tested on: HCT-15 colon
TK-10 renal = tested on: TK-10 renal
UACC-62 melanoma = tested on: UACC-62 melanoma
EKVX NSCLC = tested on: EKVX NSCLC
HS 578T breast = tested on: HS 578T breast
MALME-3M melanoma = tested on: MALME-3M melanoma
HOP-62 NSCLC = tested on: HOP-62 NSCLC
SK-OV-3 ovarian = tested on: SK-OV-3 ovarian
T-47D breast = tested on: T-47D breast
HL-60(TB) leukemia = tested on: HL-60(TB) leukemia
SNB-19 CNS = tested on: SNB-19 CNS
SF-539 CNS = tested on: SF-539 CNS
RPMI-8226 leukemia = tested on: RPMI-8226 leukemia
IGROV1 ovarian = tested on: IGROV1 ovarian
NCI-H23 lung = tested on: NCI-H23 lung
M14 melanoma = tested on: M14 melanoma
HCC-2998 colon = tested on: HCC-2998 colon
CCRF-CEM leukemia = tested on: CCRF-CEM leukemia
SNB-75 CNS = tested on: SNB-75 CNS
NCI-H522 lung = tested on: NCI-H522 lung
COLO 205 colon = tested on: COLO 205 colon
LOX IMVI melanoma = tested on: LOX IMVI melanoma
HT29 colon = tested on: HT29 colon
SK-MEL-28 melanoma = tested on: SK-MEL-28 melanoma
CAKI-1 renal = tested on: CAKI-1 renal
HCT-116 colon = tested on: HCT-116 colon
NCI-H226 lung = tested on: NCI-H226 lung
SF-295 CNS = tested on: SF-295 CNS
OVCAR-3 ovarian = tested on: OVCAR-3 ovarian
NCI/ADR-RES ovarian = tested on: NCI/ADR-RES ovarian
K-562 leukemia = tested on: K-562 leukemia
DU-145 prostate = tested on: DU-145 prostate
SF-268 CNS = tested on: SF-268 CNS
ACHN renal = tested on: ACHN renal
RXF 393 renal = tested on: RXF 393 renal
HOP-92 NSCLC = tested on: HOP-92 NSCLC
PC-3 prostate = tested on: PC-3 prostate
A549 NSCLC = tested on: A549 NSCLC
U251 CNS = tested on: U251 CNS
MOLT-4 leukemia = tested on: MOLT-4 leukemia
A498 renal = tested on: A498 renal

## COC(=O)C(Cc1ccc(O)c(O)c1)NC(=O)C(CSC/C=C(\C)CCCC(C)CCCC(C)CCCC(C)C)NC(C)=O (configuration not stated)
MCF7 breast
  GI50: 13.5 µM
  TGI: > 100 µM
SN12C renal
  GI50: 30.9 µM
  TGI: > 100 µM
KM12 colon
  GI50: 9.05 µM
  TGI: > 100 µM
NCI-H460 lung
  GI50: 4.27 µM
  TGI: > 100 µM
OVCAR-5 ovarian
  GI50: 29.5 µM
  TGI: > 100 µM
OVCAR-8 ovarian
  GI50: 7.95 µM
  TGI: 32.7 µM
SK-MEL-5 melanoma
  GI50: 28 µM
  TGI: > 100 µM
SK-MEL-2 melanoma
  GI50: 25.1 µM
  TGI: 90 µM
MDA-MB-468 breast
  GI50: 16.9 µM
  TGI: > 100 µM
OVCAR-4 ovarian
  GI50: 25.6 µM
  TGI: > 100 µM
786-0 renal
  GI50: 1.29 µM
  TGI: 2.76 µM
UACC-257 melanoma
  GI50: 69.2 µM
  TGI: > 100 µM
MDA-MB-435
  GI50: 41.5 µM
  TGI: > 100 µM
SW-620 colon
  GI50: 11.4 µM
  TGI: > 100 µM
BT-549 breast
  GI50: 1.36 µM
  TGI: 3 µM
HCT-15 colon
  GI50: 4.45 µM
  TGI: > 100 µM
TK-10 renal
  GI50: 22.3 µM
  TGI: 93.8 µM
UACC-62 melanoma
  GI50: 17.1 µM
  TGI: 74.8 µM
EKVX NSCLC
  GI50: 30.3 µM
  TGI: > 100 µM
HS 578T breast
  GI50: 27.7 µM
  TGI: > 100 µM
MALME-3M melanoma
  GI50: 49.1 µM
  TGI: > 100 µM
HOP-62 NSCLC
  GI50: 13.6 µM
  TGI: 44.4 µM
SK-OV-3 ovarian
  GI50: 17.5 µM
  TGI: 43.2 µM
T-47D breast
  GI50: 7.78 µM
  TGI: 45.3 µM
HL-60(TB) leukemia
  GI50: 6.67 µM
  TGI: 41.5 µM
SNB-19 CNS
  GI50: 3.81 µM
  TGI: 48.4 µM
SF-539 CNS
  GI50: 9.48 µM
  TGI: 26.1 µM
RPMI-8226 leukemia
  GI50: 4.06 µM
  TGI: > 100 µM
IGROV1 ovarian
  GI50: 10.7 µM
  TGI: > 100 µM
NCI-H23 lung
  GI50: 20 µM
  TGI: 64.2 µM
M14 melanoma
  GI50: 2.78 µM
  TGI: 12.5 µM
HCC-2998 colon
  GI50: 18 µM
  TGI: > 100 µM
CCRF-CEM leukemia
  GI50: 3.84 µM
  TGI: > 100 µM
SNB-75 CNS
  GI50: 39.3 µM
  TGI: > 100 µM
NCI-H522 lung
  GI50: 1.82 µM
  TGI: 3.6 µM
COLO 205 colon
  GI50: 15.5 µM
  TGI: > 100 µM
LOX IMVI melanoma
  GI50: 10.5 µM
  TGI: > 100 µM
HT29 colon
  GI50: 9.19 µM
  TGI: > 100 µM
SK-MEL-28 melanoma
  GI50: 49.5 µM
  TGI: > 100 µM
CAKI-1 renal
  GI50: 31 µM
  TGI: > 100 µM
HCT-116 colon
  GI50: 1.33 µM
  TGI: 2.81 µM
NCI-H226 lung
  GI50: 16.2 µM
  TGI: > 100 µM
SF-295 CNS
  GI50: 18.3 µM
  TGI: 43.8 µM
OVCAR-3 ovarian
  GI50: 5.79 µM
  TGI: > 100 µM
NCI/ADR-RES ovarian
  GI50: 33.3 µM
  TGI: > 100 µM
K-562 leukemia
  GI50: 8.06 µM
  TGI: > 100 µM
DU-145 prostate
  GI50: > 100 µM
  TGI: > 100 µM
SF-268 CNS
  GI50: 26.7 µM
  TGI: > 100 µM
ACHN renal
  GI50: 16.5 µM
  TGI: 42.7 µM
RXF 393 renal
  GI50: 16.1 µM
  TGI: 44.5 µM
HOP-92 NSCLC
  GI50: 11.9 µM
  TGI: 30.1 µM
PC-3 prostate
  GI50: 3 µM
  TGI: 14.2 µM
A549 NSCLC
  GI50: 11.2 µM
  TGI: > 100 µM
U251 CNS
  GI50: 2.84 µM
  TGI: 11.2 µM
MOLT-4 leukemia
  GI50: 3.34 µM
  TGI: > 100 µM
A498 renal
  GI50: 30.3 µM
  TGI: > 100 µM
